# Key:
# [1] = target: Human recombinant PDE10A2 (Homo sapiens (Human), UniProt Q9Y233); assay: In vitro hPDE10a: human recombinant PDE10A2 scintillation proximity assay, IC50; type: biochemical; conditions: human recombinant PDE10A2, SPA, 60 nM cAMP; read-out: hPDE10a2 IC50
# In short: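 Purified recombinant human PDE10A2 (Ni-sepharose) was assayed by SPA, counting [3H]-AMP product captured on yttrium silicate beads added in zinc sulphate stop solution. Inhibition was expressed as % of activity without compound, with a no-enzyme low control. Repeat data points were aggregated.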
# [2] = rat, in vivo
# Protocol: PDE10a-Brain Permeability Assay
# (§1) A. PDE10a-Perfused Brain Permeability Study Protocol
# (§2) Drug administration by oral gavage, subcutaneous injection or intravenous was carried out using male Sprague Dawley rats under IACUC protocol (SH-MET3010). Male Sprague Dawley rats (Charles River) ˜300-350 g were maintained on a 4% standard rodent diet (Test Diet 5001). They are allowed ad libitum access to water and food. Room temperature was maintained at 64° F. and humidity at 30-70%.
# (§3) Three animals per compound were provided a dose of 2 mg/mL in 20% HpbCD/Tris pH 8 by tail i.v. or 30 mpk p.o. or s.c. in 20% HpbCD/Tris pH 8, with PDE10a antagonists. A first blood sample was collected at 30 min via retro-orbital sinus (anesthetic by 70% CO2/30% O2) into heparinzed plasma separator tubes. The blood was centrifuged and 100 μL plasma was placed into a 96 well plate and saved on dry ice.
# (§4) After the 120 min, the final blood sample was collected via retro-orbital sinus under anesthesia by IP 0.5 cc injection of a 4/1 mixture of Ketaset: AnaSed [(prepared 10 mL Ketaset (100 mg/mL Ketamine)+2.5 mL AnaSed (20 mg/mL Xylazine)]. The rats were then perfused with 400 mL heparinized saline (10,000 units/L) through the left ventricle of the heart; the brains were then removed (not including the medulla), weighed and homogenized in PBS (4 mL/g tissue). The samples were stored at −80° C. and submitted for chemical analysis of blood and brain concentrations. Endpoints of sample analysis consists of the plasma concentrations at 30 and 120 min, plus brain concentrations at 120 min.
# [3] = target: Rat recombinant PDE10a (rPDE10a) (Rattus norvegicus (Rat), UniProt Q9QYJ6); assay: In vitro assay PDE10a: rat recombinant PDE10a SPA with 3H-cAMP substrate, IC50; type: biochemical; conditions: 60 nM cAMP, read-out: rPDE10a2 IC50
# Chain of Rat recombinant PDE10a (rPDE10a) (Q9QYJ6 whole entry): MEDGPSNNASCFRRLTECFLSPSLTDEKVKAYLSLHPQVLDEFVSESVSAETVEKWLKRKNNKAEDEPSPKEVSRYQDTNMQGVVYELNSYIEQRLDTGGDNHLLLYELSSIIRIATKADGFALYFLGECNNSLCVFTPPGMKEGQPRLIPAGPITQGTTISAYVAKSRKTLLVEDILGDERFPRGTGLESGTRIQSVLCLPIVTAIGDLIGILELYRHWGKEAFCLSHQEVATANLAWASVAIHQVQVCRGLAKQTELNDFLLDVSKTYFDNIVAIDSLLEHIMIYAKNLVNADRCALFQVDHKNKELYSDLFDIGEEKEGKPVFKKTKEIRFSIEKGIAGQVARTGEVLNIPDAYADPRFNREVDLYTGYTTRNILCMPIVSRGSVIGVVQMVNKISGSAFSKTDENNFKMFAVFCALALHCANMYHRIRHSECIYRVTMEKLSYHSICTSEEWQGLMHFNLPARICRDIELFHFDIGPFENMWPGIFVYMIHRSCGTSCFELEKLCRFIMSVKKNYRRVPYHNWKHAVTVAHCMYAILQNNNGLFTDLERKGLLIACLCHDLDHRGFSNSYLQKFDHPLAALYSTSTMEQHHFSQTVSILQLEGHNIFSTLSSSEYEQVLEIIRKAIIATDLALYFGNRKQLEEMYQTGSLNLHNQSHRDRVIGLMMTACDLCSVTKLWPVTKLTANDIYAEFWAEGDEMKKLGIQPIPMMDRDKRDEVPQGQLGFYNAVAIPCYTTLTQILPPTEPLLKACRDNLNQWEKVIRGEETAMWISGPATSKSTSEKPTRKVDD
# In short: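 Enzyme expressed in Sf9 cells via baculovirus and Ni-sepharose purified; reaction with 3H-cAMP ran 60 min at rt, stopped with PDE SPA beads. Compounds diluted in DMSO at 100-fold final concentration; blanks omitted enzyme.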
# [4] = PDE10a perfused brain permeability study: plasma concentrations at 30 and 120 min, brain concentration at 120 min, brain/plasma ratio; conditions: male, Sprague-Dawley, rat
# Protocol: PDE10a-Brain Permeability Assay
# as §1, §2, §3, §4
# Chain of Human recombinant PDE10A2 (Q9Y233 267-1055): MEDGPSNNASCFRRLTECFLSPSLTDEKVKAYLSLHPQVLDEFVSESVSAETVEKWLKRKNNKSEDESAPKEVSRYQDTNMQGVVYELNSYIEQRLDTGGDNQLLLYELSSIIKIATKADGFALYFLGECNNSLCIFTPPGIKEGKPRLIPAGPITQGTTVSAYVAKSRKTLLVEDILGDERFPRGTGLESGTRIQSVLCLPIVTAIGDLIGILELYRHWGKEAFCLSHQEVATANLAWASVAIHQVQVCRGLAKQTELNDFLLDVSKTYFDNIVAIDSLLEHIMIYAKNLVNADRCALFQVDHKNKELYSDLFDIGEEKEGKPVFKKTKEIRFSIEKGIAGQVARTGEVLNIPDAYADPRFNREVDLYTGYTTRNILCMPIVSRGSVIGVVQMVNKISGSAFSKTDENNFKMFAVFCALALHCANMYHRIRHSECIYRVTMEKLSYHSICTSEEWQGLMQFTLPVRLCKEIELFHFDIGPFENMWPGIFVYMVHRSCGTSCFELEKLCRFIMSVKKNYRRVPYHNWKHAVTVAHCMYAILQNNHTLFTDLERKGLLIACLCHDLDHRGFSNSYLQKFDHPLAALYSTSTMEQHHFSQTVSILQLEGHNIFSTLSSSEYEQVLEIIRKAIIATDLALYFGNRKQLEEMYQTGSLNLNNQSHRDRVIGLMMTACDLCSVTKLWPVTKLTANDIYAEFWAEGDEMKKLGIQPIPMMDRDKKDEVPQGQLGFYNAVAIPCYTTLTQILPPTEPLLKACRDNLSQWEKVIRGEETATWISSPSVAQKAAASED
IC50 [1],Brain conc 2 h [2],Plasma conc 2 h [2],Ratio Br/Pl Mean 2 h [2],IC50 [3],concentration at 2 h ([4]; brain),Kp at 2 h ([4]; brain/plasma),concentration at 2 h ([4]; plasma),Compound
2 nM,0 ng/g,106 ng/mL,0,,,,,"O=C(O)CCc1ccc(-c2c([C@H]3C[C@H](c4ccc5ccccc5n4)C3)nc3c(N4CCOCC4)ccnn23)cc1 [compound 169, 3-(4-(8-Morpholino-2-((1r,3r)-3-(quinolin-2-yl)cyclobutyl)imidazo[1,2-b]pyridazin-3-yl)phenyl)propanoic acid]"
52 nM,,,,41 nM,54 ng/g,0.16,326 ng/mL,"OC(c1ccc(-c2c(/C=C/c3ccc4ccccc4n3)nc3c(N4CCOCC4)ccnn23)cc1)(C(F)(F)F)C(F)(F)F [compound 52, (E)-1,1,1,3,3,3-Hexafluoro-2-(4-(8-morpholino-2-(2-(quinolin-2-yl)vinyl)imidazo[1,2-b]pyridazin-3-yl)phenyl)propan-2-ol]"
